# Reference: patent US9521846B2, “Template-fixed peptidomimetics with antimicrobial activity” (priority 2006, dated 2016)
# Read-outs that look alike come from different tables or passages of the source. Non-standard residues stand in square brackets, D forms with d. Residues, ends and D or L forms follow the SMILES beside them. dDab = NCC[C@@H](N)C(=O)O; Orn = NCCC[C@H](N)C(=O)O; Dab = NCC[C@H](N)C(=O)O
# Legend:
# [1] = test system: P. aeruginosa ATCC 27853; format: cell-based, Pseudomonas aeruginosa
# Outline: (§1)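 Modified NCCLS broth microdilution; MH broth + 0.02% BSA; inoculum ~10^6 CFU/ml (0.5 McFarland); 1:1 with 2-fold serial peptide dilutions.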
# [2] = test system: Pseudomonas aeruginosa IMP 1 Livermore 3140; format: cell-based
# Outline: as §1
# [3] = test system: Pseudomonas aeruginosa P1021903; format: cell-based
# Outline: as §1
# [4] = test system: Pseudomonas aeruginosa P1021913; format: cell-based
# Outline: as §1
# [5] = test system: Pseudomonas aeruginosa P8191900; format: cell-based
# Outline: as §1
# [6] = test system: HELA cells (Acc57); test: Cytotoxicity assay, MTT reduction (LC 50, GI 50); format: cell-based
# Outline: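 Read-out was MTT reduction (A595) after 48 h peptide exposure (12.5–50 μM, triplicates) of HeLa cells plated at 7.0×10^3/well and precultured 24 h. Growth % was normalised to a time-zero reading. Linear trend interpolation gave the concentration at −50% growth (LC50) and at 50% growth (GI50).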
# [7] = test system: human red blood cells (hRBC); test: Hemolysis; format: cell-based; conditions: 100
# [8] = test system: P. aeruginosa
# [9] = test system: Pseudomonas aeruginosa (ATCC 27853); test: In vivo septicemia assay; set-up: species or system CD-1 mice; conditions: groups of 6 mice
# Method: Groups of 6 CD-1 (Crl.) derived male mice weighing 24±2 g were used. The mice were each inoculated intravenously (IV) with an LD90-100 of Pseudomonas aeruginosa (ATCC 27853) (9×10^6 CFU/0.5 ml/mouse) in brain heart infusion broth without 5% mucin. Compound at doses of 5, 2.5, 1, 0.5, 0.25 and 0.1 mg/kg, vehicle (0.9% NaCl, 10 ml/kg) was administered subcutaneously (SC) to test animals at 1 hour after bacterial inoculation. Also, an additional group was treated twice with compound at a dose of 5 mg/kg at 1 and 6 hours after bacterial inoculation. Mortality was recorded once daily for 7 days following the bacterial inoculation and an increase of survival of the animals by 50 percent or more (^3 50%) after the bacterial inoculation, relative to vehicle control, indicates significant antimicrobial effect. The MED (ED50) was determined by nonlinear regression using Graph-Pad Prism (Graph Pad Software, USA).
# Septicaemia experiment in mice: LD90-100 of Pseudomonas aeruginosa (ATCC 27853) (9×10^6 CFU/0.5 ml/mouse IV and after 1 h Ex. 1 s.c.
# Septicaemia experiment in mice: LD90-100 of Pseudomonas aeruginosa (ATCC 27853) (9×10^6 CFU/0.5 ml/mouse IV), and after 1 and 5 h Ex. 40 s.c.
# Septicaemia experiment in mice: LD90-100 of Pseudomonas aeruginosa (ATCC 27853) (9×10^6 CFU/0.5 ml/mouse IV), and after 1 and 5 h Ex. 50 s.c.
Molecule,MIC P. aeruginosa ATCC 27853 ([1]; ATCC 27853),MIC P. aeruginosa IMP1 Livermore 3140 ([2]; IMP 1 Livermore 3140),MIC P. aeruginosa P1021903 ([3]; P1021903),MIC P. aeruginosa P1021913 ([4]; P1021913),MIC P. aeruginosa P8191900 ([5]; P8191900),Cytotoxicity GI50 Hela cells [6],Hemolysis at 100 μg/ml [7],Average MIC [8],further results
CC[C@H](C)[C@@H]1NC(=O)[C@H](Cc2c[nH]c3ccccc23)NC(=O)[C@H]([C@@H](C)O)NC(=O)[C@@H]2CCCN2C(=O)[C@H]2CCCN2C(=O)[C@H](CCN)NC(=O)[C@H](C)NC(=O)[C@H](CCN)NC(=O)[C@H](CCN)NC(=O)[C@H](Cc2c[nH]c3ccccc23)NC(=O)[C@H](CCN)NC(=O)[C@@H](CCN)NC(=O)[C@H](CCCCN)NC(=O)[C@H](CCN)NC1=O [Example 41] (cyclo(TWI[Dab]K[dDab][Dab]W[Dab][Dab]A[Dab][dP]P)),0.02 µg/mL,0.25 µg/mL,0.03 µg/mL,0.25 µg/mL,0.05 µg/mL,50 µM,0.2%,0.12 µg/mL,
CC[C@H](C)[C@@H]1NC(=O)[C@H](Cc2ccc(O)cc2)NC(=O)[C@H](CC(=O)O)NC(=O)[C@@H]2CCCN2C(=O)[C@H]2CCCN2C(=O)[C@H](CCN)NC(=O)[C@H](C)NC(=O)[C@H](CCN)NC(=O)[C@H](CCN)NC(=O)[C@H](Cc2c[nH]c3ccccc23)NC(=O)[C@H](CCN)NC(=O)[C@@H](CCN)NC(=O)[C@H](CCCCN)NC(=O)[C@H](CCN)NC1=O [Example 42] (cyclo(DYI[Dab]K[dDab][Dab]W[Dab][Dab]A[Dab][dP]P)),0.25 µg/mL,0.50 µg/mL,0.125 µg/mL,0.50 µg/mL,0.06 µg/mL,50 µM,0.2%,0.29 µg/mL,
CC[C@H](C)[C@@H]1NC(=O)[C@H](Cc2ccc(O)cc2)NC(=O)[C@H](CC(=O)O)NC(=O)[C@@H]2CCCN2C(=O)[C@H]2CCCN2C(=O)[C@H](CCN)NC(=O)[C@H](C)NC(=O)[C@H](CCN)NC(=O)[C@H](CCN)NC(=O)[C@H](Cc2c[nH]c3ccccc23)NC(=O)[C@H](CCN)NC(=O)[C@@H](CCN)NC(=O)[C@H](CCCN)NC(=O)[C@H](CCN)NC1=O [Example 43] (cyclo(DYI[Dab][Orn][dDab][Dab]W[Dab][Dab]A[Dab][dP]P)),0.13 µg/mL,2.00 µg/mL,0.125 µg/mL,2.00 µg/mL,0.50 µg/mL,50 µM,0.5%,0.95 µg/mL,
CC[C@H](C)[C@@H]1NC(=O)[C@H](Cc2c[nH]c3ccccc23)NC(=O)[C@H](CCC(=O)O)NC(=O)[C@@H]2CCCN2C(=O)[C@H]2CCCN2C(=O)[C@H](CCC(N)=O)NC(=O)[C@H](C)NC(=O)[C@H](CCN)NC(=O)[C@H](CCN)NC(=O)[C@H](Cc2c[nH]c3ccccc23)NC(=O)[C@H](CCN)NC(=O)[C@@H](CCN)NC(=O)[C@H](CCCCN)NC(=O)[C@H](CCN)NC1=O [Example 45] (cyclo(EWI[Dab]K[dDab][Dab]W[Dab][Dab]AQ[dP]P)),0.25 µg/mL,1.00 µg/mL,0.50 µg/mL,1.00 µg/mL,0.50 µg/mL,50 µM,0.2%,0.65 µg/mL,
CC[C@H](C)[C@@H]1NC(=O)[C@H](Cc2c[nH]c3ccccc23)NC(=O)[C@H](CCC(=O)O)NC(=O)[C@@H]2CCCN2C(=O)[C@H]2CCCN2C(=O)[C@H](CCN)NC(=O)[C@H](C)NC(=O)[C@H](CCN)NC(=O)[C@H](CCN)NC(=O)[C@H](Cc2c[nH]c3ccccc23)NC(=O)[C@H](CCN)NC(=O)[C@@H](CCN)NC(=O)[C@H](CCCN)NC(=O)[C@H](CCN)NC1=O [Example 47] (cyclo(EWI[Dab][Orn][dDab][Dab]W[Dab][Dab]A[Dab][dP]P)),0.09 µg/mL,0.75 µg/mL,0.13 µg/mL,0.50 µg/mL,0.13 µg/mL,50 µM,0.2%,0.32 µg/mL,
CC[C@H](C)[C@@H]1NC(=O)[C@H](Cc2c[nH]c3ccccc23)NC(=O)[C@H]([C@@H](C)O)NC(=O)[C@@H]2CCCN2C(=O)[C@H]2CCCN2C(=O)[C@H](CCN)NC(=O)[C@H](C)NC(=O)[C@H](CCN)NC(=O)[C@H](CCN)NC(=O)[C@H](Cc2c[nH]c3ccccc23)NC(=O)[C@H](CCN)NC(=O)[C@@H](CCN)NC(=O)[C@H](CCCN)NC(=O)[C@H](CCN)NC1=O [Example 48] (cyclo(TWI[Dab][Orn][dDab][Dab]W[Dab][Dab]A[Dab][dP]P)),0.02 µg/mL,0.19 µg/mL,0.02 µg/mL,0.13 µg/mL,0.03 µg/mL,50 µM,0.2%,0.08 µg/mL,
CC[C@H](C)[C@@H]1NC(=O)[C@H](Cc2c[nH]c3ccccc23)NC(=O)[C@H]([C@@H](C)O)NC(=O)[C@@H]2CCCN2C(=O)[C@H]2CCCN2C(=O)[C@H](CO)NC(=O)[C@H](C)NC(=O)[C@H](CCN)NC(=O)[C@H](CCN)NC(=O)[C@H](Cc2c[nH]c3ccccc23)NC(=O)[C@H](CCN)NC(=O)[C@@H](CCN)NC(=O)[C@H](CCCN)NC(=O)[C@H](CCN)NC1=O [Example 49] (cyclo(TWI[Dab][Orn][dDab][Dab]W[Dab][Dab]AS[dP]P)),0.03 µg/mL,0.50 µg/mL,0.03 µg/mL,0.25 µg/mL,0.06 µg/mL,50 µM,0.1%,0.17 µg/mL,
Example 50: backbone-cyclized; P1-P12 Glu-Trp-Ile-Gln-Lys-Dab-Dab-Ser-Dab-Dab-Ala-Ser; template DPro-LPro; SEQ ID NO: 50 (cyclo(EWIQK[Dab][Dab]S[Dab][Dab]AS[dP]P); SMILES CC[C@H](C)[C@@H]1NC(=O)[C@H](Cc2c[nH]c3ccccc23)NC(=O)[C@H](CCC(=O)O)NC(=O)[C@@H]2CCCN2C(=O)[C@H]2CCCN2C(=O)[C@H](CO)NC(=O)[C@H](C)NC(=O)[C@H](CCN)NC(=O)[C@H](CCN)NC(=O)[C@H](CO)NC(=O)[C@H](CCN)NC(=O)[C@H](CCN)NC(=O)[C@H](CCCCN)NC(=O)[C@H](CCC(N)=O)NC1=O),,,,,,50 µM,,,"MIC P. aeruginosa ATCC 27853 ([1]; Mueller-Hinton broth): 0.09 µg/mL; MIC P. aeruginosa IMP1 Livermore 3140 ([2]; Mueller-Hinton broth): 2.00 µg/mL; MIC P. aeruginosa P1021903 ([3]; Mueller-Hinton broth): 0.06 µg/mL; MIC P. aeruginosa P1021913 ([4]; Mueller-Hinton broth): 0.50 µg/mL; MIC P. aeruginosa P8191900 ([5]; Mueller-Hinton broth): 0.13 µg/mL; Dead ([9]; 2 × 0.1 mg/kg, after 1 and 5 h): 6; Survivors ([9]; 2 × 0.1 mg/kg, after 1 and 5 h): 0; Dead ([9]; 2 × 0.3 mg/kg, after 1 and 5 h): 6; Survivors ([9]; 2 × 0.3 mg/kg, after 1 and 5 h): 0; Dead ([9]; 2 × 1 mg/kg, after 1 and 5 h): 5; Survivors ([9]; 2 × 1 mg/kg, after 1 and 5 h): 1; Dead ([9]; 2 × 3 mg/kg, after 1 and 5 h): 3; Survivors ([9]; 2 × 3 mg/kg, after 1 and 5 h): 3; Dead ([9]; 2 × 10 mg/kg, after 1 and 5 h): 0; Survivors ([9]; 2 × 10 mg/kg, after 1 and 5 h): 6; Average MIC ([8]; average over the five P. aeruginosa strains, Mueller-Hinton broth): 0.56 µg/mL"
Gentamycin [reference compound],,,,,,,,,"Dead ([9]; 1 mg/kg, 1 h after inoculation): 0; Survivors ([9]; 1 mg/kg, 1 h after inoculation): 6; Dead ([9]; 2 × 1 mg/kg, after 1 and 5 h): 1; Survivors ([9]; 2 × 1 mg/kg, after 1 and 5 h): 5"
